Test results taken from patent publication US10716828B2, “Methods of modulating cellular homeostatic pathways and cellular survival” (Dana-Farber Cancer Institute, Inc., priority 2007, dated 2020).

System: islets
Experiment: Toxicity to islets
Type: cell-based, mouse
Settings: 3 μM

CSCC[C@@H]1NC(=O)[C@@](C)(NC(=O)[C@H](CCCNC(=N)N)NC(=O)[C@H](CC(C)C)NC(=O)[C@H](CCC(=O)O)NC(=O)[C@H](CCCNC(=N)N)NC(=O)CNC(=O)[C@H](Cc2ccc(O)cc2)NC(=O)[C@H](CCCNC(=N)N)NC(=O)[C@H](CCC(N)=O)NC(=O)[C@H](C)NC(=O)[C@H](C)NC(=O)[C@H](Cc2c[nH]c3ccccc23)NC(=O)[C@H](CC(C)C)NC(=O)[C@@H](N)CC(N)=O)CCCC=CCCC[C@@](C)(C(=O)N[C@@H](Cc2ccccc2)C(=O)N[C@H](C(=O)N[C@@H](CC(=O)O)C(=O)N[C@@H](CO)C(=O)N[C@@H](Cc2ccccc2)C(=O)N[C@@H](CCCCN)C(=O)N[C@@H](CCCCN)C(=O)O)C(C)C)NC(=O)[C@H](CC(=O)O)NC(=O)[C@H](CO)NC1=O [BAD SAHBA]
toxicity to islets: not toxic to islets
